Measured values taken from ChEMBL document CHEMBL1151413 (J Nat Prod, 1983).
Activity calls are given as the source filed them. No cut-off for these calls is given here.

Experiments:
Ileum [1] = experiment: Inhibition of acetylcholine-induced guinea pig ileum contraction at 5 ug/ml after 15 mins; type: functional, tissue-based; conditions: Cavia porcellus
Ileum [2] = experiment: Inhibition of acetylcholine-induced guinea pig ileum contraction at 10 ug/ml after 15 mins; type: functional, tissue-based; conditions: Cavia porcellus
Ileum [3] = experiment: Inhibition of acetylcholine-induced guinea pig ileum contraction assessed as residual activity at 5 ug/ml after 30 to 50 mins relative to control; type: functional, Cavia porcellus
Ileum [4] = experiment: Inhibition of acetylcholine-induced guinea pig ileum contraction assessed as residual activity at 10 ug/ml after 30 to 50 mins relative to control; type: functional, Cavia porcellus
Ileum [5] = experiment: Inhibition of histamine-induced guinea pig ileum contraction; conditions: Cavia porcellus, read-out: pA2 (converted)
Ileum [6] = experiment: Inhibition of BaCl2-induced guinea pig ileum contraction at 10 ug/ml after 15 mins; type: functional, tissue-based; conditions: Cavia porcellus
Ileum [7] = experiment: Inhibition of acetylcholine-induced guinea pig ileum contraction; type: functional, tissue-based; conditions: Cavia porcellus, TDE = time-dependent effect
Ileum [8] = experiment: Inhibition of coaxially-induced guinea pig ileum contraction at 10 ug/ml; type: functional, tissue-based; conditions: Cavia porcellus, TDE = time-dependent effect
Platelet [9] = experiment: Antiaggregation activity against ADP-induced rabbit platelet aggregation at 10 ug/ml; type: functional, cell-based; conditions: Oryctolagus cuniculus, TDE = time-dependent effect
Platelet [10] = experiment: Antiaggregation activity against arachidonic acid-induced rabbit platelet aggregation at 10 ug/ml; type: functional, cell-based; conditions: Oryctolagus cuniculus, TDE = time-dependent effect
Platelet [11] = experiment: Disaggregation activity against ADP-induced rabbit platelet aggregation at 10 ug/ml relative to ADP response; type: functional, cell-based; conditions: Oryctolagus cuniculus
Platelet [12] = experiment: Disaggregation activity against arachidonic acid-induced rabbit platelet aggregation at 10 ug/ml relative to arachidonic acid response; type: functional, cell-based; conditions: Oryctolagus cuniculus

## C=C[C@@]12COC(=O)C(=C)[C@@H]1[C@H]1OC(=O)C(=C)[C@@H]1[C@@H](O)C2 [VERNOLEPIN]
Ileum [1]
  Activity: inactive
Ileum [2]
  Activity: inactive
Ileum [3]
  Activity: <40%
Ileum [4]
  Activity: <20%
Ileum [5]
  Kb: 2.45 µM
Ileum [6]
  Activity: inactive
Ileum [7]
  Activity: tde
Ileum [8]
  Activity: tde
Platelet [9]
  Activity: tde
Platelet [10]
  Activity: tde
Platelet [11]
  Activity: Active
Platelet [12]
  Activity: Active
